Results reported in patent US7267975B2, “Methods and compositions relating to insect repellents from a novel endophytic fungus” (Montana State University, priority 2002, dated 2007).

Tested on: adult wheat stem sawflies (C. cinctus)
Test: Y-tube olfactometry insect repellency test
Type: in vivo
Conditions: for Ratio: preference of insect to non-naphthalene side (control) of Y-tube vs. naphthalene source side of tube: control acetone on paper disk, 30 insects
Experimental: FIG. 1. A highly schematic drawing of the olfactory Y-tube used to measure insect behavior in the presence of various naphthalene sources. A 6.3 volt light source is placed at the base of the Y-tube as illustrated in the drawing.
In controlled, replicated experiments, both authentic naphthalene as well as M. vitigenus, were used as odor sources in Y-tube olfactometry tests (FIG. 1). […] Thirty successful trials using naphthalene test solution A (with a naphthalene release rate of 12 ng hr^−1) were completed (Table 1). Out of 30 insects, 24 responded by moving away from the naphthalene source. A second set of 30 successful trials were completed using naphthalene test solution B. Out of 30 insects, 21 were repelled by the naphthalene source. Finally, sixty successful trials were preformed using 0.0785 cm^2 fungal plugs (2-3 weeks old) of M. vitigenus as the odor source. Out of the 60 insects, 49 traveled away from the fungus and its volatiles. The results of both test concentrations of authentic naphthalene were statistically different from the acetone control test papers (Table 1). Insect behaviour in tests involving agar plugs containing M. vitigenus was also statistically different (a=0.001) from the controls (Table 1). […] Table 1. Influence of authentic naphthalene and M. vitigenus volatiles, containing mostly naphthalene, on the behavior of adult wheat stem sawflies (C. cinctus). Bioassay tests were conducted in Y-olfactory tubes.

SMILES: c1ccc2ccccc2c1 [Authentic naphthalene, naphthalene]
- Insect behaviour (orientation) in the presence of the odor source (many of the insects tested, Y-tube): more disoriented than usual
- Number of insects moving away from the naphthalene source (out of 30 insects, naphthalene test solution A (release rate 12 ng hr^-1)): 24
- Number of insects repelled by the naphthalene source (out of 30 insects, naphthalene test solution B): 21
- Ratio: preference of insect to non-naphthalene side (control) of Y-tube vs. naphthalene source side of tube (test concentration (A), naphthalene release rate 12 ng hr^-1): 24/6
- Ratio: preference of insect to non-naphthalene side (control) of Y-tube vs. naphthalene source side of tube (test concentration (B)): 21/9
